Experimental data reported in PMC2919811 (Analytical biochemistry, 2010).

Assays:
OAT1 = target: T1, OAT1 (Homo sapiens, UniProt Q4U2R8); test: Cellular accumulation in CHO cells transiently transfected with OAT1; format: cell-based; conditions: 10 μM 8-FcA, 20 minutes
T1 sequence (Q4U2R8 1-563): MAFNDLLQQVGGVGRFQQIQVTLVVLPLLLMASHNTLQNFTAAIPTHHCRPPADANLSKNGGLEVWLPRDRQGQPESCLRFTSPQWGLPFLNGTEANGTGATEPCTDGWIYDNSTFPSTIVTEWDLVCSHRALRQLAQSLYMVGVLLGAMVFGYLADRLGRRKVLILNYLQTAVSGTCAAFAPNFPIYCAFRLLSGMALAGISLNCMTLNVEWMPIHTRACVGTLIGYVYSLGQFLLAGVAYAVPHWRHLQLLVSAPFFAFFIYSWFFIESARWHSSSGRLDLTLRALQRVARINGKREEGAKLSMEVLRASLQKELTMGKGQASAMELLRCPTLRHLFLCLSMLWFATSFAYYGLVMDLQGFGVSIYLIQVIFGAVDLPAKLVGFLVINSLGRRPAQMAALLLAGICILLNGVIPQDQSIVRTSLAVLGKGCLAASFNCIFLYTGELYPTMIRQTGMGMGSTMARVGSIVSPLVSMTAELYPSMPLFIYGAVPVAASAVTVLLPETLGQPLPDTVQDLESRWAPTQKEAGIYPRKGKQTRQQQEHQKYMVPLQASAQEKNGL

OATP1B1 = OATP1B1 (Homo sapiens, UniProt Q9Y6L6); conditions: 10 μM 8-FcA, 20 minutes
Chain of OATP1B1 (Q9Y6L6 whole entry): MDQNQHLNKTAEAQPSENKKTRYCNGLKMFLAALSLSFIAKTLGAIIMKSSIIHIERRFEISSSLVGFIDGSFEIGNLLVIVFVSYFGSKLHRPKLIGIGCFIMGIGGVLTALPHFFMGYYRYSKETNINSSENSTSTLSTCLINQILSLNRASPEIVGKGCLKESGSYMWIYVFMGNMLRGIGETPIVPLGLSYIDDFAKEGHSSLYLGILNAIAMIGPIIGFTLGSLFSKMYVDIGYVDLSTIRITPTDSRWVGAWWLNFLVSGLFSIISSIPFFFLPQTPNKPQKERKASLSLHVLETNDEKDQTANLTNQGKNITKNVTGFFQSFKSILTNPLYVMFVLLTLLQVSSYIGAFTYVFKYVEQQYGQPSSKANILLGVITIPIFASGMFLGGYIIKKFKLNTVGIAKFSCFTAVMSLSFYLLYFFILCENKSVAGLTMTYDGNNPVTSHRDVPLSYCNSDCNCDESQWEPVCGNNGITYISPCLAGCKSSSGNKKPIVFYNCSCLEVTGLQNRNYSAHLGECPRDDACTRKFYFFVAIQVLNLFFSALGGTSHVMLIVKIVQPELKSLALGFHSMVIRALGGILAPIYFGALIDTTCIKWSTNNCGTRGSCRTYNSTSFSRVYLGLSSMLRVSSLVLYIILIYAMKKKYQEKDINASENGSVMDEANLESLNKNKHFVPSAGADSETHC

OATP2B1 [1] = target: T2, OATP2B1 (Homo sapiens, UniProt O94956); test: Substrate uptake in CHO cells stably expressing OATP2B1; format: cell-based; conditions: 2 μM substrate, five minute accumulation, CHOvector = 1
T2 sequence (O94956 1-709): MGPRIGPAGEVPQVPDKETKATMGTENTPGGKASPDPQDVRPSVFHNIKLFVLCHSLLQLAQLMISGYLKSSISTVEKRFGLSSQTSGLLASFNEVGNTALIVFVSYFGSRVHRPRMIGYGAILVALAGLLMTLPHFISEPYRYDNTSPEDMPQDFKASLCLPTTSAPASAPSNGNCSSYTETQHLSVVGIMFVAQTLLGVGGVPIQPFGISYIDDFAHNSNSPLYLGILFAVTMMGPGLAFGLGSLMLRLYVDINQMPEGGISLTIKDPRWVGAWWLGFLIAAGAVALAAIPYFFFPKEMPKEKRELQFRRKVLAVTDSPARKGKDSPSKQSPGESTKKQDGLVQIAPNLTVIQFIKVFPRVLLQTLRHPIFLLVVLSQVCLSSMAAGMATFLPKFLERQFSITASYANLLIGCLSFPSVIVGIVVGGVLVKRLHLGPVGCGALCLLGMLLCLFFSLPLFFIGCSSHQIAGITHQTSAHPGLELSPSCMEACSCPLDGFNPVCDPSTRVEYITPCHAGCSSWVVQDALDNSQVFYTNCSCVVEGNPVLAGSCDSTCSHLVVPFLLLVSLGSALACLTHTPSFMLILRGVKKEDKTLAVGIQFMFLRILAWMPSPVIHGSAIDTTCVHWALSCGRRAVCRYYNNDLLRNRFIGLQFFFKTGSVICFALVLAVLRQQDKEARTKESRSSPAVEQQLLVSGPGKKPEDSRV

[2] = stated in the introduction without data or own reference; cited from earlier work
OCT2 = target: T3, OCT2 (Homo sapiens, UniProt O15244); test: Cellular accumulation in CHO cells transiently transfected with OCT2; format: cell-based; conditions: 10 μM 8-FcA, 20 minutes
T3 sequence (O15244 1-555): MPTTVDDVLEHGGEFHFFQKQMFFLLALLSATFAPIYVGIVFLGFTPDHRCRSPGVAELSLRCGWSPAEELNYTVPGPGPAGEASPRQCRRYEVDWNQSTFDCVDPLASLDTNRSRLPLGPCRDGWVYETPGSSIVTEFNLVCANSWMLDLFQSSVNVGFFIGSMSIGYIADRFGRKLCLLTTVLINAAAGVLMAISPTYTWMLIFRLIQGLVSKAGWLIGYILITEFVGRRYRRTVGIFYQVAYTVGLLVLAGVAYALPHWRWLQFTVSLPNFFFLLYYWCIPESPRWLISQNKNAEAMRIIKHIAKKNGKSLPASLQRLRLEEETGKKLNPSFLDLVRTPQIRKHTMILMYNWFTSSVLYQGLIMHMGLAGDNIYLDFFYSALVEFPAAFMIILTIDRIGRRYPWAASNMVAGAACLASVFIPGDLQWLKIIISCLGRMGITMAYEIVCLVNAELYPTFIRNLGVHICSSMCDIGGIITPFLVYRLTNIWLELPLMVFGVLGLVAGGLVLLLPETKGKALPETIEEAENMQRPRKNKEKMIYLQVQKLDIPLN

OATP2B1 [3] = target: T2, OATP2B1; test: Cellular accumulation in CHO cells transiently transfected with OATP2B1; format: cell-based; conditions: 10 μM 8-FcA, 20 minutes

## Nc1ncnc2c1nc(SCCNC(=S)Nc1ccc(-c3c4ccc(=O)cc-4oc4cc(O)ccc34)c(C(=O)O)c1)n2[C@@H]1O[C@@H]2COP(=O)(O)O[C@H]2[C@H]1O [8-FcA, 8-(2-[Fluoresceinyl]aminoethylthio) adenosine-3', 5'-cyclic monophosphate]
OAT1
  cellular accumulation by fluorescence microscopy, OAT1: modest accumulation
OATP1B1
  cellular accumulation by fluorescence microscopy, OATP1B1: readily accumulated
OATP2B1 [1]
  cellular accumulation relative to control, CHOOATP2B1: not statistically different from that of CHOvector
[2]
  aqueous solubility: very high aqueous solubility
OCT2
  cellular accumulation by fluorescence microscopy, OCT2: negative
OATP2B1 [3]
  cellular accumulation by fluorescence microscopy, OATP2B1: negative
